Measurements taken from ChEMBL document CHEMBL1201862, “PubChem BioAssay data set” (2004).
Calls of active or inactive are those of the source.

What was measured:
[1] = molecular target: T1, Epstein-Barr nuclear antigen 1 (Epstein-Barr virus (strain B95-8) (HHV-4) (Human herpesvirus 4), UniProt P03211); assay: inhibition of EBV nuclear antigen 1 DNA binding – biochemical, fluorescence polarization, 1536-well, dose response (AID 2381); set-up: species or system human gammaherpesvirus 4;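 note: fluorescence polarization of a Cy5 DNA probe bound by EBNA-1 protein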
T1 sequence (P03211 whole entry): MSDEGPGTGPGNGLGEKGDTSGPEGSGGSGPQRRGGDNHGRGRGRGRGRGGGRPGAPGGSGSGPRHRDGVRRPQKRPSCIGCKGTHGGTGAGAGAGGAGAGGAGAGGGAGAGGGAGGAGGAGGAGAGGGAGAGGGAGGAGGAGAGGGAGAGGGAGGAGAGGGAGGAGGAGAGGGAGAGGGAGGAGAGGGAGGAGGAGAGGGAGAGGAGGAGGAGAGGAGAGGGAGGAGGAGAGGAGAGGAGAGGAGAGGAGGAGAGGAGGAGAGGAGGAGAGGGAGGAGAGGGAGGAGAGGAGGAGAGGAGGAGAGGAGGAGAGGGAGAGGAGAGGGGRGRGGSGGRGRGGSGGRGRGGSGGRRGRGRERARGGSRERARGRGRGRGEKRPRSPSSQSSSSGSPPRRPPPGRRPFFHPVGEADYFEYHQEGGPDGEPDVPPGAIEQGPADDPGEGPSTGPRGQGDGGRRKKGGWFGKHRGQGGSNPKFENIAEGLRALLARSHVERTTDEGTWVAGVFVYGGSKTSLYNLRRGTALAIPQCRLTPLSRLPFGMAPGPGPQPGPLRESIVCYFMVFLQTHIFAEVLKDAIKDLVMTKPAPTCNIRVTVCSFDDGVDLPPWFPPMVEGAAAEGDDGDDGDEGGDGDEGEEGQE

[2] = molecular target: T2, Lytic switch protein BZLF1 (Epstein-Barr virus (strain B95-8) (HHV-4) (Human herpesvirus 4), UniProt P03206); assay: inhibition of BZLF1 ZTA DNA binding – biochemical, fluorescence polarization, Epstein-Barr virus, 1536-well, counter-screen for EBNA-1 inhibitor project, dose response (AID 2377); set-up: species or system human gammaherpesvirus 4;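 note: fluorescence polarization of Cy5-labelled ZRE DNA probe bound by purified Zta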
T2 sequence (P03206 whole entry): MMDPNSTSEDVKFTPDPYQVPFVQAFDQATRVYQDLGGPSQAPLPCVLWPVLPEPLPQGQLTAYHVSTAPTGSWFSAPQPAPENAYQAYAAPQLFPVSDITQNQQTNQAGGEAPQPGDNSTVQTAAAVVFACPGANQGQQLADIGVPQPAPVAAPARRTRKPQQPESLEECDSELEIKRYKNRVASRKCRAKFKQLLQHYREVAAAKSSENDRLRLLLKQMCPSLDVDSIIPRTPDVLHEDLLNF

[3] = HEK-293T cell viability reduction – luminescence, B-cell screen hits, cytotoxicity control for BCR NF-kB inhibitor project, dose response (AID 489021); assay type: functional, cell-based;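 note: HEK-293T cells carrying an NF-kB luciferase reporter; cells exposed to compound for about 14 hours before viability readout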
[4] = molecular target: Neurotensin receptor type 1 (Homo sapiens, UniProt P30989); assay type: functional;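 note: Image-based confirmatory dose-response assay measuring agonist activity at NTR1; NTR1-expressing U2OS osteosarcoma cells imaged for beta-arrestin GFP spot formation; agonist potency where compounds increase beta-arrestin recruitment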
Coagulation factor XII = molecular target: T3, Coagulation factor XII (Homo sapiens, UniProt P00748); assay type: functional;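 note: activated factor XIIa alpha cleaving a fluorogenic AMC peptide substrate; inhibitor potency from loss of enzyme activity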
T3 sequence (P00748 whole entry): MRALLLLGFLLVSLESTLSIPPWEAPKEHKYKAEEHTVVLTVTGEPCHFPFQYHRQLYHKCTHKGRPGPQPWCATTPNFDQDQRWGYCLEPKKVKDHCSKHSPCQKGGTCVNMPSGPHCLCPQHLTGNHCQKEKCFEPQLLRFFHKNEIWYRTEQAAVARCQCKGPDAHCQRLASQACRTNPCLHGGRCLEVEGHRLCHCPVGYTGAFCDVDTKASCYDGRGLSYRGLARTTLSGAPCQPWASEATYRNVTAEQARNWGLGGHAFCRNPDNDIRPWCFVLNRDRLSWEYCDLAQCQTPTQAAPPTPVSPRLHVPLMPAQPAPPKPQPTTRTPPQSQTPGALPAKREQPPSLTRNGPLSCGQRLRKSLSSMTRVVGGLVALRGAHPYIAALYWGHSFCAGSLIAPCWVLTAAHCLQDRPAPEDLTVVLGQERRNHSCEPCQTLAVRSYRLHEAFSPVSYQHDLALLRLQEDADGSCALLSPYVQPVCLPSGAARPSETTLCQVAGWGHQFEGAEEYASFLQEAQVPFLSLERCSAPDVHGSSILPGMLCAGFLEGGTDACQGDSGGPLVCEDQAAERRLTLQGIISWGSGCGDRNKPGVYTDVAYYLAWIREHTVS

[5] = Luminescence Cell-Based Dose Retest to Confirm Inhibitors of Cancer Stem Cells. [Related pubchem assays (depositor defined):AID2717, AID2721]; assay type: functional; settings: Homo sapiens
[6] = molecular target: Eukaryotic translation initiation factor 4H (Homo sapiens, UniProt Q15056); assay: eIF4H binding inhibition – biochemical, uHTS, fluorescence polarization, translation initiation inhibitor project, primary screen (AID 2012)
Aminopeptidase N = molecular target: T4, Aminopeptidase N (Plasmodium falciparum FcB1/Columbia, UniProt O96935); assay: malaria alanyl aminopeptidase activity blockers – biochemical, fluorogenic H-Leu-NHMec substrate, 1536-well (AID 1445); set-up: species or system Plasmodium falciparum 3D7, 3D7
T4 sequence (O96935 whole entry): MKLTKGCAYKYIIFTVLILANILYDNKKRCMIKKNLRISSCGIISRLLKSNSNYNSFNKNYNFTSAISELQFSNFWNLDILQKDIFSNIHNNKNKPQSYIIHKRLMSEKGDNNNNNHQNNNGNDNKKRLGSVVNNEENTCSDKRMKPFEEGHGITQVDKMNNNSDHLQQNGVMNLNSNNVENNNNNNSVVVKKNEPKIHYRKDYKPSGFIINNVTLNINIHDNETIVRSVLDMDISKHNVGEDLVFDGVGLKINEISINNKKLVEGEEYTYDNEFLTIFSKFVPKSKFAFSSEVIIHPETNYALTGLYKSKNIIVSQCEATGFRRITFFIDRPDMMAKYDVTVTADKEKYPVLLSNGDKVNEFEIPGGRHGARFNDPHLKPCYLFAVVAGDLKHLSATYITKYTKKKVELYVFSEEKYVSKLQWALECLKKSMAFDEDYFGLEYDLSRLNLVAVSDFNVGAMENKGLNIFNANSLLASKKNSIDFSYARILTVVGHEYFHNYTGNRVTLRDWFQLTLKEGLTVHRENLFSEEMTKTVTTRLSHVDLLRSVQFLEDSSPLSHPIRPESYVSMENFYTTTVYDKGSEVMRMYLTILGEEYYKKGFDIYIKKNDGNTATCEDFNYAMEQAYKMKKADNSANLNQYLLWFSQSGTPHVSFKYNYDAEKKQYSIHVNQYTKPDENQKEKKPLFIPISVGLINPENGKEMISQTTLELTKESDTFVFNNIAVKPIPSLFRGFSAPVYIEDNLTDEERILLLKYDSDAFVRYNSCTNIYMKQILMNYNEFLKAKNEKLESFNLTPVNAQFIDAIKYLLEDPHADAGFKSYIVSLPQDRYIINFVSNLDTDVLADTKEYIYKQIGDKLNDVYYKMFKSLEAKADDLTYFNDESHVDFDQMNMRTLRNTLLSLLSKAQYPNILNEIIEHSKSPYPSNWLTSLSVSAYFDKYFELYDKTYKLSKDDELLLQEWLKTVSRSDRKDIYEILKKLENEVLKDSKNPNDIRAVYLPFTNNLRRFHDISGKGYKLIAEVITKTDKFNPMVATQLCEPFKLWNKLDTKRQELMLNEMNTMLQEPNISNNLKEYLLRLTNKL

[7] = molecular target: Polyadenylate-binding protein 1 (Homo sapiens, UniProt P11940); assay: blockers of PABP interaction with poly(A) – biochemical, fluorescence polarization, […] (AID 2014)
[8] = molecular target: Luciferin 4-monooxygenase (Photinus pyralis, UniProt P08659); assay: Counter Screen for Luciferase-based Assay Positives. [Related pubchem assays: 620, 618, 411 ]
HT-1080 = assay: HT1080 cell viability loss – fluorescence readout (AID 620); assay type: functional, cell-based; settings: Homo sapiens
[9] = A Cell Based Secondary Assay To Explore Cytotoxicity of Compounds that Sensitize Mycobacterium Tuberculosis to Beta-Lactam Antibiotics.; assay type: functional
[10] = molecular target: Voltage-dependent T-type calcium channel subunit alpha-1H (Homo sapiens, UniProt O95180); assay type: functional;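 note: channel activity triggered by adding a high calcium stimulation buffer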
[11] = luciferase reporter signal suppression in cells – H4 neuroglioma cells, luminescence, dose response (AID 1990); assay type: functional, cell-based
[12] = Luminescence Cell-Based Dose Response HTS to Identify Inhibitors of 5'UTR Stem-Loop Driven Prion Protein mRNA Translation in H4 Neuroglioblastoma Cells. [Related pubchem assays: 1827 (Project Summary), 1813 (Primary HTS)]; assay type: functional
[13] = alpha-synuclein stem-loop luciferase translation blockers – H4 neuroglioma cells, luminescence, confirmation (AID 1988); assay type: functional, cell-based
[14] = molecular target: T5, RNA-binding protein pos-1 (Caenorhabditis elegans, UniProt G5EF15); assay: disruptors of C. elegans POS-1 RNA interaction – biochemical, fluorescence polarization, dose response (AID 1964);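 note: purified POS-1 fused to maltose binding protein made in E. coli; potency of compounds blocking POS-1 binding to fluorescent RNA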
T5 sequence (G5EF15 whole entry): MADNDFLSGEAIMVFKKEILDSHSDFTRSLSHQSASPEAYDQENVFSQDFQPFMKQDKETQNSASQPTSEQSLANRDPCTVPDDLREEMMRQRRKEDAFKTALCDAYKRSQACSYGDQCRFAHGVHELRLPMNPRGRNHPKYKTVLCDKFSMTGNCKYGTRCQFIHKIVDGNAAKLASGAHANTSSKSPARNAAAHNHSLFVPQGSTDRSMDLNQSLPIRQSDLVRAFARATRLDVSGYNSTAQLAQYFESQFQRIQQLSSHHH

[15] = molecular target: T6, Zinc finger protein mex-5 (Caenorhabditis elegans, UniProt Q9XUB2); assay: potency of MEX-5 RNA-binding blockers – biochemical, C. elegans, fluorescence polarization, dose response (AID 1960)
T6 sequence (Q9XUB2 whole entry): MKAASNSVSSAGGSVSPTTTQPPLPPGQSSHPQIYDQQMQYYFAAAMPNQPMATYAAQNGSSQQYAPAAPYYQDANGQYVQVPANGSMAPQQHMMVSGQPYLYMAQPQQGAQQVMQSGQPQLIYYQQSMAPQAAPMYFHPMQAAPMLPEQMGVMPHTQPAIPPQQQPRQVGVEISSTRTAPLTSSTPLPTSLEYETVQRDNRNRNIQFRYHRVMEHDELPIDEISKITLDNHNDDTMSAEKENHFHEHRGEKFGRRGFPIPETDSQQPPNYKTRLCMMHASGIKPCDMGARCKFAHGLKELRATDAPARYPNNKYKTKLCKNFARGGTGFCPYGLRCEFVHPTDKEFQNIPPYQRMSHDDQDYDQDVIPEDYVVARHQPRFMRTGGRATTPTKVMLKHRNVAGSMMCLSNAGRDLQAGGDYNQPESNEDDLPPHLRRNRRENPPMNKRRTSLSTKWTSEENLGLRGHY

HeLa = assay: viability loss in HeLa cells – cell-based, 24 h, cherry-picked samples, cytotoxicity control, dose response (AID 504726); assay type: functional; settings: Homo sapiens;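 note: potency for cytotoxicity as loss of luminescence signal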
[16] = molecular target: G-protein coupled receptor 35 (Homo sapiens, UniProt Q9HC97); assay: inhibition of zaprinast-stimulated GPR35 beta-arrestin translocation – imaging, U2OS, beta-arrestin-GFP, zaprinast agonist, primary screen (AID 2058); assay type: functional;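 note: antagonist potency meaning inhibition of agonist-induced arrestin redistribution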
Cytochrome P450 2C19 = Cytochrome P450 2C19 (Homo sapiens, UniProt P33261); assay: Cytochrome panel assay with activity outcomes. Panel member name: p450-cyp2c19 Compounds with AC50 equal or less than 10 uM are considered active; assay type: functional
Cytochrome P450 2C19, sequence (P33261 whole entry): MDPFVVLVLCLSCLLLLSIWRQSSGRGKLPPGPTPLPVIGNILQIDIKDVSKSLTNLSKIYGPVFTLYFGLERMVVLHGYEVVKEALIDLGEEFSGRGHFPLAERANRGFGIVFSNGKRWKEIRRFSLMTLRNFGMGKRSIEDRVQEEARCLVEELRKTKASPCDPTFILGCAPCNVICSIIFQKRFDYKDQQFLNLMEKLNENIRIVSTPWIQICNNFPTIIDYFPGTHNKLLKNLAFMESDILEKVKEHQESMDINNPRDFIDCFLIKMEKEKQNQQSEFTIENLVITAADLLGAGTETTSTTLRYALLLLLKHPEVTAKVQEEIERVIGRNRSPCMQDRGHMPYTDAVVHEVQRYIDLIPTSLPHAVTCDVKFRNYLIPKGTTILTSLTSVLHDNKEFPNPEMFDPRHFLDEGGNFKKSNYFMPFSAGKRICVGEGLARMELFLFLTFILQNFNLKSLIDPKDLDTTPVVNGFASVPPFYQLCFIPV

Luciferin 4-monooxygenase, sequence (P08659 whole entry): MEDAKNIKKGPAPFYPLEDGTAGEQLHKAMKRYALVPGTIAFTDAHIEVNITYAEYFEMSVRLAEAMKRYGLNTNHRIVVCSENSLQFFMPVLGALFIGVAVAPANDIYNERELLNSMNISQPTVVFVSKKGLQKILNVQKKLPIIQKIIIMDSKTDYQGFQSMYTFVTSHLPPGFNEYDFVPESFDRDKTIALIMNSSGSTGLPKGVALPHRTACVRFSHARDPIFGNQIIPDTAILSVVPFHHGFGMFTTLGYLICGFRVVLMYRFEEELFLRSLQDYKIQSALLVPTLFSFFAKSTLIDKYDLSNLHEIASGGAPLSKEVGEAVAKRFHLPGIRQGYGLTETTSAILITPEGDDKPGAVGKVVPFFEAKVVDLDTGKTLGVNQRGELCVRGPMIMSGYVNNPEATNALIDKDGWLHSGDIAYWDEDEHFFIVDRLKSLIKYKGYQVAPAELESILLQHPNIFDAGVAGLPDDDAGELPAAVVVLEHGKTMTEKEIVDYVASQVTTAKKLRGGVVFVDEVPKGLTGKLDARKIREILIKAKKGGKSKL
Neurotensin receptor type 1, sequence (P30989 whole entry): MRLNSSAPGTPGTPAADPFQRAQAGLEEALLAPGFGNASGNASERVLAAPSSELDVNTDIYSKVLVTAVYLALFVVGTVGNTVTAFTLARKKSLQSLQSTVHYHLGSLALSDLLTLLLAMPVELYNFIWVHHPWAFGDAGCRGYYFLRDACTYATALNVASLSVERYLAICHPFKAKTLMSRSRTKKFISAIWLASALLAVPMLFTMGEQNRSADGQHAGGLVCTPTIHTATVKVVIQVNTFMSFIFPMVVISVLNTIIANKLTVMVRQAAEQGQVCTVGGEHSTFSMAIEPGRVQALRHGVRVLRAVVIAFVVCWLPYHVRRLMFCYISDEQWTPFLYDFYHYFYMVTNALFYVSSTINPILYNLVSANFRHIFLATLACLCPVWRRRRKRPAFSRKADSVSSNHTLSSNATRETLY
Voltage-dependent T-type calcium channel subunit alpha-1H, sequence (O95180 whole entry): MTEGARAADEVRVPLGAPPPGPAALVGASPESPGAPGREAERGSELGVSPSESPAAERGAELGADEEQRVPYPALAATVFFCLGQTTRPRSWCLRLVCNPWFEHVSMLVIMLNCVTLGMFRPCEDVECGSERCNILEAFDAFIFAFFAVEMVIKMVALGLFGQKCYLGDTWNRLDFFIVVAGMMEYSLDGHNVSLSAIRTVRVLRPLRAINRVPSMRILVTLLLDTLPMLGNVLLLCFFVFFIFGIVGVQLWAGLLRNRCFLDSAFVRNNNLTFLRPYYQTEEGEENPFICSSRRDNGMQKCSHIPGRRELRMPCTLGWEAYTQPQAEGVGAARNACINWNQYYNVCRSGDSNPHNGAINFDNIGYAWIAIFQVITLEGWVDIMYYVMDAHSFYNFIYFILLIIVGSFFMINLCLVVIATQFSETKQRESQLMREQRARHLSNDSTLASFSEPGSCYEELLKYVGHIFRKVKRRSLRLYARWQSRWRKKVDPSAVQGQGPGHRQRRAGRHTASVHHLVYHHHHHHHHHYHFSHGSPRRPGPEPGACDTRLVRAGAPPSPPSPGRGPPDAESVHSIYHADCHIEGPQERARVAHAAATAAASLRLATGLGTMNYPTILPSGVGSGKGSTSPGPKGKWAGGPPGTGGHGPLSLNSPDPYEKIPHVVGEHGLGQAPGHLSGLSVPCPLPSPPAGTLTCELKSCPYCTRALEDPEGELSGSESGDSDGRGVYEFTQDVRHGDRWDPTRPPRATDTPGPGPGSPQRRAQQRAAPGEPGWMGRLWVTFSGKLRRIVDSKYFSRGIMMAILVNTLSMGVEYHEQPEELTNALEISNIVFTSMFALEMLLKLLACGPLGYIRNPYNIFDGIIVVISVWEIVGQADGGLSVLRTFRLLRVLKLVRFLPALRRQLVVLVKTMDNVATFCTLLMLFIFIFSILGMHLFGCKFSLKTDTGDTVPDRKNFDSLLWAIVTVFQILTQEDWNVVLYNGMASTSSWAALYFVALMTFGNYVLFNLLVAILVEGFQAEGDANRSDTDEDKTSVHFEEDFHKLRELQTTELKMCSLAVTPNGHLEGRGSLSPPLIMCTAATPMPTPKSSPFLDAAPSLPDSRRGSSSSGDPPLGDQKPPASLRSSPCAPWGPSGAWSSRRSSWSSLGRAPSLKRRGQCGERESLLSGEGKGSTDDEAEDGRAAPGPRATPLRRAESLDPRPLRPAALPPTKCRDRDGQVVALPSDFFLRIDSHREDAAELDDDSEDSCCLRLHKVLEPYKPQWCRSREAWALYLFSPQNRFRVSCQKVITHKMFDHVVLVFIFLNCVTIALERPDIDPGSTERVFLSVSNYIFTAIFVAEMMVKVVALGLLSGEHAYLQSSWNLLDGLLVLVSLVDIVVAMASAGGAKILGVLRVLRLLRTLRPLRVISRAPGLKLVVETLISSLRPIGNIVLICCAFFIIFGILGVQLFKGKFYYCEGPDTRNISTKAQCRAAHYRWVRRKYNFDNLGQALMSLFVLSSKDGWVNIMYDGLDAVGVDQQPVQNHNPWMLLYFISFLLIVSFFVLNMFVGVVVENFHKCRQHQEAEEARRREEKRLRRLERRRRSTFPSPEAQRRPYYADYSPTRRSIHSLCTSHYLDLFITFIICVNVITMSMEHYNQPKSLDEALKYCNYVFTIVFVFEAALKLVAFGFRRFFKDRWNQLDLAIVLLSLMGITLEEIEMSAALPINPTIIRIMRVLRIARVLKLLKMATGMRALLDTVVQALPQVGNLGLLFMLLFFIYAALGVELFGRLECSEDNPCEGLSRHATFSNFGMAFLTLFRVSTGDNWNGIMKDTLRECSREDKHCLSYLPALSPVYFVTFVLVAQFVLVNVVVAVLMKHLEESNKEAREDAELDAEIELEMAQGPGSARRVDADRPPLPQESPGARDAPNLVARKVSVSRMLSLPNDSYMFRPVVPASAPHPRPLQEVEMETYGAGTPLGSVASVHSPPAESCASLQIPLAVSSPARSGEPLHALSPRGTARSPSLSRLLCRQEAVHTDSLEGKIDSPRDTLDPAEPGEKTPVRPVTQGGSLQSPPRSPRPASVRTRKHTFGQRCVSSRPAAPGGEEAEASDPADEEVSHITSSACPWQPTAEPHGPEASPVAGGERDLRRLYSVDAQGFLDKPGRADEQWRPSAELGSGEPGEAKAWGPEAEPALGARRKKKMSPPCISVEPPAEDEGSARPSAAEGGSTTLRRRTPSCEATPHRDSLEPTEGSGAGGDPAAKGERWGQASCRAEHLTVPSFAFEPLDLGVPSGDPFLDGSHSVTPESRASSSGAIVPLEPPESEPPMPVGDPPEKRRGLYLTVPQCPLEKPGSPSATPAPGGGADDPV
Polyadenylate-binding protein 1, sequence (P11940 whole entry): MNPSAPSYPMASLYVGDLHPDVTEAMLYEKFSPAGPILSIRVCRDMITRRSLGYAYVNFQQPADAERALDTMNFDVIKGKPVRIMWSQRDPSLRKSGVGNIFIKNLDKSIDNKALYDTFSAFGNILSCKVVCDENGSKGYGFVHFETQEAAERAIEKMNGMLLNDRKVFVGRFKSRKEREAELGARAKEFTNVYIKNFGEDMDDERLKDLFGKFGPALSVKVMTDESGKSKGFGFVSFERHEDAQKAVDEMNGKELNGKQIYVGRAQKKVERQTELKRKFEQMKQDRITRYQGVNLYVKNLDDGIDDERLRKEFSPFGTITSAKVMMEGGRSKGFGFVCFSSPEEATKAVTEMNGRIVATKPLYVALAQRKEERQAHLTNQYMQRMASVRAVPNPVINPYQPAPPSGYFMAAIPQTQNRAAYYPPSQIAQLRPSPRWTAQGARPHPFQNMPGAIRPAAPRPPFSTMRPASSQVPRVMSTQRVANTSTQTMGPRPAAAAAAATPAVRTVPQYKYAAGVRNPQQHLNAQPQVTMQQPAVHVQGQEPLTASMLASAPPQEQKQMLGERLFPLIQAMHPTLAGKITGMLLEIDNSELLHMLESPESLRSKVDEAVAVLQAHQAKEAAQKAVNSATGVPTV
G-protein coupled receptor 35, sequence (Q9HC97 whole entry): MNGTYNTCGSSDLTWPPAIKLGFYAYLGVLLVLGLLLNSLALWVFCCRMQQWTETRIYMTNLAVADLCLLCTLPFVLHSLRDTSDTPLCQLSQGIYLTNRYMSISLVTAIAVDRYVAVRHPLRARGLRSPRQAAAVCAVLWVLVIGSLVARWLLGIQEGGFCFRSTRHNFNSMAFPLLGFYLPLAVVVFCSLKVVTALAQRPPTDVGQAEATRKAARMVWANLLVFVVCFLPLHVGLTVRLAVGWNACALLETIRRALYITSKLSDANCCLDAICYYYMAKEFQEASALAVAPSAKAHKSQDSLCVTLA

## CCC(=O)Nc1ccc(C(=O)Nc2ccc3c(c2)C(=O)N(CC2CCCO2)C3=O)cc1 (stereo unspecified)
[1]
  IC50: 6.54 µM (active)
[2]
  IC50: > 111 µM (not active)

## CCOC(=O)C1CCN(c2ncnc3c2cnn3-c2ccc(Cl)cc2)CC1
[3]
  IC50: > 80 µM (inactive)

## COc1cc2c3nnc(-c4ccc(F)cc4)c-3cn(Cc3cccc(F)c3)c2cc1OC
[4]
  EC50: 3.59 µM (active)

## CCOC(=O)CSc1snnc1-c1ccccc1
Coagulation factor XII
  IC50: > 50 µM (inactive)

## Cc1cc(C)c2c(c1)/C(=C/C(=O)c1ccc(Br)s1)C(=O)N2
[5]
  AC50: 2.22 µM (active)
[4]
  EC50: 6.24 µM (active)

## O=C1NC(=O)N(Cc2ccc(F)cc2)C(=O)/C1=C/Nc1ccc(C(=O)O)cc1
Coagulation factor XII
  IC50: > 50 µM (inactive)

## CCN(CC)Cc1c(O)ccc2c(C)c(CC(=O)OC)c(=O)oc12
[6]
  IC50: > 100 µM (inactive)
Aminopeptidase N
  IC50: 40.4 µM (active)
[7]
  IC50: > 100 µM (inactive)

## O=C(Nc1ccc(N2CCCC2)c(Cl)c1)c1ccco1
[8]
  EC50: < 0.2 µM (active)
HT-1080
  EC50: > 50 µM (not active)

## COc1ccc(O)c(C(=O)CC(=O)c2ccccc2)c1
[8]
  EC50: 5.71 µM (active)
HT-1080
  EC50: > 50 µM (not active)

## COc1ccc(NC(=O)c2ccc(C(=O)Nc3ccc(OC)cc3OC)cc2)c(OC)c1
[1]
  IC50: 19.2 µM (not active)
[2]
  IC50: > 111 µM (not active)

## CCOc1ccc(-c2cnc3n2CCC3)cc1
[9]
  CC50: > 40 µM (active)

## CCN1C(=O)c2cccc3c(S(=O)(=O)N4CCC(C)CC4)ccc1c23
[3]
  IC50: > 80 µM (inactive)

## c1ccc(-c2noc(CSc3nnnn3-c3ccccc3)n2)cc1
[10]
  EC50: 8.32 µM (active)

## CCOC(=O)c1cnn(-c2ccccc2)c1-n1cccc1C(=O)C(=O)Nc1ccc(F)cc1
[10]
  EC50: 6.1 µM (active)

## Cc1nc2cc(-c3cccc(F)c3)nn2c(C)c1CCC(=O)N1CCC2(CC1)OCCO2
[11]
  EC50: 10.1 µM (active)
[12]
  EC50: 16.6 µM (active)
[13]
  EC50: 15.4 µM (active)
[3]
  IC50: > 80 µM (inactive)

## CCCSc1nnc(NC(=O)Nc2ccccc2)s1
[6]
  IC50: > 100 µM (inactive)
[14]
  EC50: > 300 µM (not active)
[15]
  EC50: > 300 µM (not active)
[7]
  IC50: > 100 µM (inactive)

## Cc1ccc(NC(=O)c2ccc(Cl)c(S(=O)(=O)N3CCc4ccccc43)c2)nc1
HeLa
  AC50: 342 µM (active)

## CC(C)CSC1=NSC2=NC(=O)/C(=C\c3coc4ccccc4c3=O)C(=N)N12
[16]
  IC50: 23.3 µM (inactive)

## O=C(Nc1cccc(NC(=O)c2cccs2)c1)c1ccc(Br)cc1
[1]
  IC50: 6.65 µM (active)
[2]
  IC50: > 111 µM (not active)

## Cc1ccc(/C(O)=C/C2=NCC(C)NC2=O)cc1 (stereo unspecified)
[8]
  EC50: > 100 µM (not active)
HT-1080
  EC50: > 50 µM (not active)
Cytochrome P450 2C19
  AC50: inconclusive
